# Measurements published in US20070066608A1, “Novel indole derivatives with an improved antipsychotic activity” (priority 2003, published 2007).
# Target: T1, Human 5HT1A receptor (Homo sapiens, UniProt P08908)
# T1 construct: expressed in transfected cells; host or cells: L929 cells (stably transfected)
# T1 sequence (P08908 1-422): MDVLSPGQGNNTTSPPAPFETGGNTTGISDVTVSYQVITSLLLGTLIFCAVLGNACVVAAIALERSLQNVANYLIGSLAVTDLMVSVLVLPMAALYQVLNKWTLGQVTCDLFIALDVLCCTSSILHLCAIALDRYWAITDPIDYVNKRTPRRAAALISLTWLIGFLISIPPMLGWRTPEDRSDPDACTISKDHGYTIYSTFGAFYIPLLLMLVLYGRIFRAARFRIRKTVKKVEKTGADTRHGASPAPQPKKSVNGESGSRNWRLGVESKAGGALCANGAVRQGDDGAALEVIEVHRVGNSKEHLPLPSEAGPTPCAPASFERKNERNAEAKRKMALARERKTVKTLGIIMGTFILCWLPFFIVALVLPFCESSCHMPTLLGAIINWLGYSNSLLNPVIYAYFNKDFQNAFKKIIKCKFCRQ
# Assay: Binding experiment for 5-HT1A receptor, [3H]8OHDPAT
# Settings: membranes of 5HT1A receptor-transfected L929 cells, read-out: pIC50 5HT1A (converted)
# Description: (§1) The interaction of the compounds of Formula (I) with dopamine-receptors, h5HT-transporter and h5HT1A receptor was assessed in in vitro radioligand binding experiments. In general, a low concentration of a radioligand with a high binding affinity for a particular receptor or transporter is incubated with a sample of a tissue preparation enriched in a particular receptor or transporter or with a preparation of cells expressing cloned human receptors in a buffered medium. During the incubation, the radioligand binds to the receptor or transporter. When equilibrium of binding is reached, the receptor bound radioactivity is separated from the non-bound radioactivity, and the receptor- or transporter-bound activity is counted The interaction of the test compounds with the receptor is assessed in competition binding experiments. Various concentrations of the test compound are added to the incubation mixture containing the receptor- or transporter preparation and the radioligand. The test compound in proportion to its binding affinity and its concentration inhibits binding of the radioligand.
# Human 5HT1A receptor-transfected L929 cells were collected by scraping into ice-cold Tris-HCl buffer (50 mM, pH 7.4). The suspension was centrifuged (23 500×g, 10 min, 4° C.) and pellets stored at −70° C. until required. They were then thawed and briefly homogenised using an Ultra-Turrax T25 homogeniser prior to dilution to an appropriate protein concentration optimised for specific and non-specific binding. [^3H]8OHDPAT (NEN, specific activity 127 Ci/mmol) was diluted in Tris-HCl assay buffer containing CaCl2 (50 mM and 4 mM, respectively; pH 7.7) at a concentration of 5 nmol/L. Prepared radioligand (50 μl) was then incubated (30 min, 37° C.) with membrane preparations from L929 cells stably-transfected with the h5HT1A gene construct (400 μl) and with 50 μl of either the 10% DMSO control, spiroxatrine (10^−6 mol/L final concentration), or compound of interest. Membrane-bound activity was detected by filtration through a Packard Filtermate harvester onto Unifaltemplates, washing with ice-cold Tris-HCI buffer (3×4 ml), followed by drying. Scintillation fluid was added and membranes were counted in a Topcount scintillation counter. % Specific bound and competition binding curves were calculated using S-Plus software (Insightful).
row,Compound,IC50 [nM]
1,"N#Cc1ccc2[nH]cc(C3CCN(CC4COc5ccncc5O4)CC3)c2c1 (single isomer, unassigned) [Compound 22]",10

# Target: T2, human 5HT transporter (Homo sapiens, UniProt P31645)
# T2 construct: host or cells: HEK cells
# T2 sequence (P31645 whole entry): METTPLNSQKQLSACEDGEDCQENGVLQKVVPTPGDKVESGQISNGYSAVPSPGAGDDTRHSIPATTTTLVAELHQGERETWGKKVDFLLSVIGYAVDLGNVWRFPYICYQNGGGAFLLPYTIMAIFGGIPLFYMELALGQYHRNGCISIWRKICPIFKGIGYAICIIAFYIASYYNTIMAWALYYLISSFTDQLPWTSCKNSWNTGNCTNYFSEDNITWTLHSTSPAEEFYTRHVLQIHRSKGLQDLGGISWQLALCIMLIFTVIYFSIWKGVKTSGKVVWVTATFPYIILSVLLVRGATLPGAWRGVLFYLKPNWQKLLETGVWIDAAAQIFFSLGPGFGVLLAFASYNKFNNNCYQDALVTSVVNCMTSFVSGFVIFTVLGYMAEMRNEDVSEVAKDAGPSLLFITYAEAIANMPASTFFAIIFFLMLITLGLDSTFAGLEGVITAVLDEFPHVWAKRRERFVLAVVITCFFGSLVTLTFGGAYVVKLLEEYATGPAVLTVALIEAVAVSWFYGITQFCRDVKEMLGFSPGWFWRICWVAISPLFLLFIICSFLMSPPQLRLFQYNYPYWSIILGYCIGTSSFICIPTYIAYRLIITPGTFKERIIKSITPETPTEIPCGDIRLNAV
# Assay: Binding experiment for 5-HT transporter, [3H]Paroxetine
# Settings: 5HT transporter-transfected HEK cells, [3H]Paroxetine binding; read-out: pIC50 5HT reuptake inhibition (converted)
# Description: as §1
# Frozen human 5HT transporter-transfected HEK cells (Perkin Elmer, Brussels) were thawed and briefly homogenised using an Ultra-Turrax T25 homogeniser prior to dilution to an appropriate protein concentration optimised for specific and non-specific binding. [^3H]Paroxetine (NEN, specific activity 20 Ci/mmol) was diluted in Tris-HCl assay buffer containing NaCl and KCl (50 mM 120 mM and 5 mM, respectively; pH 7.4) at a concentration of 5 nmol/L. Prepared radioligand (25 μl) was then incubated (60 min, 25° C.) with membrane preparations (200 μl) and with 25 μl of either 10% DMSO control, Imipramine (10^−6 mol/L final concentration), or compound of interest Membrane-bound activity was detected by filtration through a Packard Filtermate harvester onto Unifilterplates pre-soaked in 0.1% PEI, washing with ice-cold assay buffer (3×4 ml). Filters were dried prior to addition of scintillation fluid and then counting in a Topcount scintillation counter. % Specific bound and competition binding curves were calculated using S-Plus software (Insightful).
row,Compound,IC50 [nM]
1,N#Cc1ccc2[nH]cc(C3CCN(CC4COc5ccncc5O4)CC3)c2c1 (racemic) [Compound 20],39.8
2,"O=[N+]([O-])c1ccc2[nH]cc(C3=CCN(CC4COc5ccncc5O4)CC3)c2c1 (single isomer, unassigned) [Compound 15]",10
3,"O=[N+]([O-])c1ccc2[nH]cc(C3=CCN(CC4COc5ccncc5O4)CC3)c2c1 (single isomer, unassigned) [Compound 16]",251
4,"N#Cc1ccc2[nH]cc(C3CCN(CC4COc5ccncc5O4)CC3)c2c1 (single isomer, unassigned) [Compound 22]",501
5,Brc1ccc2[nH]cc(C3=CCN(CC4COc5ccncc5O4)CC3)c2c1 (centres unmarked) [Compound 13],100
6,Fc1cccc2c(C3=CCN(CC4COc5ccncc5O4)CC3)c[nH]c12 (centres unmarked) [Compound 17],50.1
7,Clc1ccc2[nH]cc(C3CCN(CC4COc5ccncc5O4)CC3)c2c1 (centres unmarked) [Compound 18],200
8,Oc1ccc2[nH]cc(C3CCN(CC4COc5ccncc5O4)CC3)c2c1 (centres unmarked) [Compound 19],316
9,Fc1ccc2c(C3CCN(CC4COc5ccncc5O4)CC3)c[nH]c2c1 (centres unmarked) [Compound 23],251
10,Fc1cccc2c(C3CCN(CC4COc5ccncc5O4)CC3)c[nH]c12 (centres unmarked) [Compound 24],316
11,Fc1ccc2[nH]cc(CC3CCN(CC4COc5ccncc5O4)CC3)c2c1 (centres unmarked) [Compound 25],63.1

# Target: T3, Human Dopamine D2L receptor (Homo sapiens, UniProt P14416)
# T3 construct: expressed in transfected cells; host or cells: CHO cells
# T3 sequence (P14416 whole entry): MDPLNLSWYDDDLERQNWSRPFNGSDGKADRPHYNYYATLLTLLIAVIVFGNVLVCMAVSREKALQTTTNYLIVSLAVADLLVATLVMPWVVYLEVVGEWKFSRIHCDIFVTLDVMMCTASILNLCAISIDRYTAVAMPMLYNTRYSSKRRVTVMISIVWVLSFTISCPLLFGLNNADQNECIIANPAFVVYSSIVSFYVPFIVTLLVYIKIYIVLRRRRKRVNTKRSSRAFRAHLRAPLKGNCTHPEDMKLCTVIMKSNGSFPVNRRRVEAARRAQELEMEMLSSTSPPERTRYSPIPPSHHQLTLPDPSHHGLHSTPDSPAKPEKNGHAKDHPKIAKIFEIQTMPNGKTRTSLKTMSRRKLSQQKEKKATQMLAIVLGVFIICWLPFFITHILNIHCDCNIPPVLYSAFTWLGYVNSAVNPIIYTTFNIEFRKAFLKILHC
# Assay: Radioligand binding experiment for dopamine D2 receptor (hD2), [3H]Spiperone
# Settings: membranes of D2L receptor-transfected CHO cells, read-out: pIC50 D2 (converted)
# Description: as §1
# Human Dopamine D2L receptor-transfected CHO cells were collected by scraping into ice-cold Tris-HCl buffer ([…], pH 7.4). The suspension was centrifuged (23 500×g, 10 min, 4° C.) and pellets stored at −70° C. until require. They were then thawed and briefly homogenised using an Ultra-Turrax T25 homogeniser prior to dilution to an appropriate protein concentration optimised for specific and non-specific binding. [^3H]Spiperone (NEN, specific activity˜70 Ci/mmol) was diluted in Tris-HCl assay buffer containing NaCl, CaCl2, MgCl2, KCI (50, 120, 2, 1, and 5 mM respectively, adjusted to pH 7.7 with HCl) at a concentration of 2 nmol/L. Prepared radioligand (50 μl) was then incubated (30 min, 37° C.) with membrane preparations pre-diluted to an appropriate protein concentration (400 μl), and with 50 μl of either the 10% DMSO control, Butaclamol (10^−6 mol/L final concentration), or compound of interest. Membrane-bound activity was detected by filtration through a Packard Filtermate harvester onto Unifilterplates, washing with ice-old Tris-HCl buffer (50 mM; pH8.0; 3×4 ml). Filters were allowed to dry before adding scintillation fluid and counting in a Topcount scintillation counter. % Specific bound and competition binding curves were calculated using S-Plus software (Insightful).
row,Compound,IC50 [nM]
1,N#Cc1ccc2[nH]cc(C3CCN(CC4COc5ccncc5O4)CC3)c2c1 (racemic) [Compound 20],63.1
2,"O=[N+]([O-])c1ccc2[nH]cc(C3=CCN(CC4COc5ccncc5O4)CC3)c2c1 (single isomer, unassigned) [Compound 15]",200
3,"O=[N+]([O-])c1ccc2[nH]cc(C3=CCN(CC4COc5ccncc5O4)CC3)c2c1 (single isomer, unassigned) [Compound 16]",316
4,"N#Cc1ccc2[nH]cc(C3CCN(CC4COc5ccncc5O4)CC3)c2c1 (single isomer, unassigned) [Compound 22]",794
5,Brc1ccc2[nH]cc(C3=CCN(CC4COc5ccncc5O4)CC3)c2c1 (centres unmarked) [Compound 13],158
6,Fc1cccc2c(C3=CCN(CC4COc5ccncc5O4)CC3)c[nH]c12 (centres unmarked) [Compound 17],126
7,Clc1ccc2[nH]cc(C3CCN(CC4COc5ccncc5O4)CC3)c2c1 (centres unmarked) [Compound 18],31.6
8,Oc1ccc2[nH]cc(C3CCN(CC4COc5ccncc5O4)CC3)c2c1 (centres unmarked) [Compound 19],63.1
9,Fc1ccc2c(C3CCN(CC4COc5ccncc5O4)CC3)c[nH]c2c1 (centres unmarked) [Compound 23],25.1
10,Fc1cccc2c(C3CCN(CC4COc5ccncc5O4)CC3)c[nH]c12 (centres unmarked) [Compound 24],25.1
11,Fc1ccc2[nH]cc(CC3CCN(CC4COc5ccncc5O4)CC3)c2c1 (centres unmarked) [Compound 25],794
